The record followed here is patent US20220047569A1, “METHOD AND COMPOUND FOR USE, IN TREATING AND/OR PREVENTING NETOSIS” (Jubilant EpiPad LLC, priority 2020, published 2022).

The test system of the experiment is Histone H3 Citrullination in Neutrophils. Briefly: Citrullination ELISA (Citrullinated Histone H3) in calcium ionophore stimulated neutrophils. The format is cell-based. Conditions: Neutrophil; human neutrophils, 25 μM calcium ionophore, CitH3 ELISA. As for the experimental part: Neutrophils were isolated according to the EasySep Direct Human Neutrophil Isolation Kit. In short, 50 mL of blood sample was drawn in a vacutainer containing K2EDTA from a healthy donor. To the whole blood, the isolation cocktail of 50 μL/mL was added. Then, in the next step 50 μL/mL of RapidSpheres™ was added to the sample. The sample was mixed evenly with the pipette and incubated for 10 minutes at room temperature. After incubation, PBS containing 1 mM EDTA was added at the ratio of 1:1 to the blood. Then the sample tube was incubated for 10 minutes. The enriched cell suspension was transferred into a new tube and RapidSpheres™ were added at 50 μL/mL to this suspension, mixed and incubated for 10 minutes at room temperature. At this step, the enriched cell suspension was carefully collected as a clear fraction into a fresh tube. Then, previous tube was replaced with the fresh tube containing enriched cell suspension. After the final separation, the clear solution of enriched cell suspension was carefully transferred to fresh tube which was ready to use for the experiment. These cells were then subjected to wash twice with plain RPMI 1640 media without Fetal Bovine Serum (FBS) and centrifuged at 1500 rpm for 5 minutes at room temperature. Cell counts were performed on each sample by Invitrogen cell counter. After the cell count, cell density was adjusted according to the experiment and re-suspended in complete RPMI media containing RPMI1640, 2% BSA and 1 mM CaCl2.
Freshly isolated neutrophils from human donor were seeded at a density of 0.5×10^6 cells in 400 μL cell suspension/well in a 24-well plate and cells were pre-incubated with the compound for 30 minutes by adding 50 μL of the 10× concentration to achieve the final 1× concentration of compound (10 μM, 1 μM and 0.1 μM). 1% DMSO was added in control wells. Then, the cells were stimulated in the presence and absence of calcium ionophore by adding 50 μL/well to achieve the final concentration of 25 μM. Upon incubation for 30 minutes with calcium ionophore, S7 nuclease was added to the wells and incubated for 10 minutes to disrupt NET DNA. Following incubation, 10 μL of 1 mM EDTA was added to inactivate nuclease. Cells were scrapped gently and transferred to the tubes, followed by centrifugation at 1500 rpm for 5 minutes. After centrifugation, supernatant was discarded, and 200 μL of lysis buffer containing PBS and 1× Protease inhibitor was added to the tubes. The obtained lysis was then subjected to mechanical shearing using Geno grinder by spin the plate at 2500 rpm for 10 minutes, followed by collection of supernatant and stored at −20° C. or immediately used for ELISA.
ELISA was performed as per Citrullinated Histone H3 ELISA Kit. All the buffer components from the kit were dissolved according to the manufactures protocol. ELISA Buffer Concentrate (10×) (Item No. 400060) and Wash Buffer Concentrate (400×) (Item No. 400060) along with polysorbate 20 (2000×) (Item No. 400035) was diluted to 1× with milliQ water. The standard for use in the ELISA was prepared as follows: • Obtain eight clean test tubes and label them, #1 through #8. Aliquot 4.9 mL of ELISA Buffer into tube #1. • Aliquot 500 μL of ELISA Buffer into the tubes #2-8. […] This tube is considered as blank, the lowest point on the standard curve.
100 μL of standards or diluted sample was added to the appropriate wells on the 96-well plate. Plates were covered with 96-well cover sheet and incubated for two hours at room temperature on an orbital shaker. The samples and standard were removed from the wells and washed four times with Wash Buffer. After the last wash, Anti-Histone H3 HRP Conjugate (Item No. 501441) (10×) stock solution was diluted in 1×ELISA buffer and 100 μL of the HRP Conjugate working solution was added to each well of the plate and incubated for one hour at room temperature on an orbital shaker. […]
For `N[C@@H]1CCCN(C(=O)c2cc3c4c(c2)nc(-c2cc5ccccc5n2CC2CC2)n4CCO3)C1` [Compound 87, (R)-(3-aminopiperidin-1-yl)(2-(1-(cyclopropylmethyl)-1H-indol-2-yl)-3,4-dihydro-5-oxa-1,2a-diazaacenaphthylen-7-yl)methanone], the 50% inhibitory concentration (IC50) (as a rule, the point on the concentration scale where inhibition reaches its midpoint) was 100 to 1000 nM. In the case of `N[C@@H]1CCCN(C(=O)c2cc3c4c(c2)nc(-c2cc5ccc(F)cc5n2Cc2ccc(F)cc2)n4CCO3)C1` [Compound 135, (R)-(3-aminopiperidin-1-yl)(2-(6-fluoro-1-(4-fluorobenzyl)-1H-indol-2-yl)-3,4-dihydro-5-oxa-1,2a-diazaacenaphthylen-7-yl)methanone], the IC50 is under 100 nM.

For the compound `N[C@@H]1CCCN(C(=O)c2cc3c4c(c2)nc(-c2cc5ccccc5n2Cc2ccccn2)n4CCO3)C1` [Compound 97, (R)-(3-aminopiperidin-1-yl)(2-(1-(pyridin-2-ylmethyl)-1H-indol-2-yl)-3,4-dihydro-5-oxa-1,2a-diazaacenaphthylen-7-yl)methanone], the IC50 was 100 to 1000 nM. As for `N[C@@H]1CCCN(C(=O)c2cc3c4c(c2)nc(-c2cc5cc(Br)ccc5n2CC2CC2)n4CCN3)C1` [Compound 153, (R)-(3-aminopiperidin-1-yl)(2-(5-bromo-1-(cyclopropylmethyl)-1H-indol-2-yl)-5,6-dihydro-4H-imidazo[1,5,4-de]quinoxalin-8-yl)methanone], the IC50 is under 100 nM. `CC(C)Cn1c(-c2nc3cc(C(=O)N4CCC[C@@H](N)C4)cc4c3n2CCO4)cc2ccccc21` [Compound 117, (R)-(3-aminopiperidin-1-yl)(2-(1-isobutyl-1H-indol-2-yl)-3,4-dihydro-5-oxa-1,2a-diazaacenaphthylen-7-yl)methanone]: the concentration for half-maximal inhibition (IC50) lay within 100 to 1000 nM.

Turning to `CCn1c(-c2nc3cc(C(=O)N4CCC[C@@H](N)C4)ccn3c2C)cc2ccc(F)cc21` [Compound 72, (R)-(3-aminopiperidin-1-yl)(2-(1-ethyl-6-fluoro-1H-indol-2-yl)-3-methylimidazo[1,2-a]pyridin-7-yl)methanone], the IC50 fell in the range of 100 to 1000 nM. Consider `Cc1c(-c2cc3ccc(F)cc3n2Cc2ccncc2)nc2cc(C(=O)N3CCC[C@@H](N)C3)ccn12` [Compound 68, (R)-(3-aminopiperidin-1-yl)(2-(6-fluoro-1-(pyridin-4-ylmethyl)-1H-indol-2-yl)-3-methylimidazo[1,2-a]pyridin-7-yl)methanone], for which the half-maximal inhibitory concentration (IC50) was under 100 nM. In the case of `COCCn1c(-c2nc3cc(C(=O)N4CCC[C@@H](N)C4)cc4c3n2CCO4)cc2ccc(OC)cc21` [Compound 107, (R)-(3-aminopiperidin-1-yl)(2-(6-methoxy-1-(2-methoxyethyl)-1H-indol-2-yl)-3,4-dihydro-5-oxa-1,2a-diazaacenaphthylen-7-yl)methanone] it was 100 to 1000 nM. As to `COc1ccc(Cn2c(-c3nc4cc(C(=O)N5CCC[C@@H](N)C5)cc5c4n3CCO5)cc3cccc(Cl)c32)cc1` [Compound 125, (R)-(3-aminopiperidin-1-yl)(2-(7-chloro-1-(4-methoxybenzyl)-1H-indol-2-yl)-3,4-dihydro-5-oxa-1,2a-diazaacenaphthylen-7-yl)methanone], the IC50 is under 100 nM.

`Cc1cc(C(=O)N2CCC[C@@H](N)C2)cc2nc(-c3cc4ccccc4n3Cc3ccccc3)c(C)n12` [Compound 26, (R)-(3-aminopiperidin-1-yl)(2-(1-benzyl-1H-indol-2-yl)-3,5-dimethylimidazo[1,2-a]pyridin-7-yl)methanone]: the concentration for half-maximal inhibition (IC50) was under 100 nM.

Turning to `Cc1c(-c2cc3ccccc3n2Cc2cccnc2)nc2cc(C(=O)N3CCC[C@@H](N)C3)ccn12` [Compound 15, (R)-(3-aminopiperidin-1-yl)(3-methyl-2-(1-(pyridin-3-ylmethyl)-1H-indol-2-yl)imidazo[1,2-a]pyridin-7-yl)methanone], the concentration for half-maximal inhibition (IC50) was under 100 nM. Take `COc1ccc(Cn2c(-c3nc4cc(C(=O)N5CCC[C@@H](N)C5)ccn4c3C)cc3ccc(F)cc32)cc1` [Compound 71, (R)-(3-aminopiperidin-1-yl)(2-(6-fluoro-1-(4-methoxybenzyl)-1H-indol-2-yl)-3-methylimidazo[1,2-a]pyridin-7-yl)methanone]: the concentration for half-maximal inhibition (IC50) is over 1000 nM. As to `Cc1c(-c2cc3ccccc3n2Cc2ccc(F)cc2)nc2cc(C(=O)N3CCC[C@@H](N)C3)ccn12` [Compound 13, (R)-(3-aminopiperidin-1-yl)(2-(1-(4-fluorobenzyl)-1H-indol-2-yl)-3-methylimidazo[1,2-a]pyridin-7-yl)methanone], the IC50 fell in the range of 100 to 1000 nM. With `Cc1c(-c2cc3ccccc3n2CC2CCC2)nc2cc(C(=O)N3CCC[C@@H](N)C3)ccn12` [Compound 61, (R)-(3-aminopiperidin-1-yl)(2-(1-(cyclobutylmethyl)-1H-indol-2-yl)-3-methylimidazo[1,2-a]pyridin-7-yl)methanone], the IC50 is over 1000 nM. On to `N[C@@H]1CCCN(C(=O)c2cc3c4c(c2)nc(-c2cc5cc(F)c(F)cc5n2CC2CC2)n4CCN3)C1` [Compound 163, (R)-(3-aminopiperidin-1-yl)(2-(1-(cyclopropylmethyl)-5,6-difluoro-1H-indol-2-yl)-5,6-dihydro-4H-imidazo[1,5,4-de]quinoxalin-8-yl)methanone], for which the concentration for half-maximal inhibition (IC50) was under 100 nM. As to `COCCn1c(-c2nc3cc(C(=O)N4CCC[C@@H](N)C4)cc4c3n2CCO4)cc2cccc(Cl)c21` [Compound 122, (R)-(3-aminopiperidin-1-yl)(2-(7-chloro-1-(2-methoxyethyl)-1H-indol-2-yl)-3,4-dihydro-5-oxa-1,2a-diazaacenaphthylen-7-yl)methanone], the IC50 was in the range of 100 to 1000 nM. In the case of `Cc1cc(C(=O)N2CCC[C@@H](N)C2)cc2nc(-c3cc4ccccc4n3CC3CC3)c(C)n12` [Compound 25, (R)-(3-aminopiperidin-1-yl)(2-(1-(cyclopropylmethyl)-1H-indol-2-yl)-3,5-dimethylimidazo[1,2-a]pyridin-7-yl)methanone], the IC50 was in the range of 100 to 1000 nM. Consider `Cc1cccc2cc(-c3nc4cc(C(=O)N5CCC[C@@H](N)C5)ccn4c3C)n(CC3CC3)c12` [Compound 30, (R)-(3-aminopiperidin-1-yl)(2-(1-(cyclopropylmethyl)-7-methyl-1H-indol-2-yl)-3-methylimidazo[1,2-a]pyridin-7-yl)methanone], for which the half-inhibitory concentration (IC50) fell in the range of 100 to 1000 nM. As to `N[C@@H]1CCCN(C(=O)c2cc3c4c(c2)nc(-c2cc5ccc(F)cc5n2CC2CC2)n4CCN3)C1` [Compound 151, (R)-(3-aminopiperidin-1-yl)(2-(1-(cyclopropylmethyl)-6-fluoro-1H-indol-2-yl)-5,6-dihydro-4H-imidazo[1,5,4-de]quinoxalin-8-yl)methanone], the concentration for half-maximal inhibition (IC50) is under 100 nM.

In the case of `Cc1ncc(Cn2c(-c3nc4cc(C(=O)N5CCC[C@@H](N)C5)ccn4c3C)cc3ccccc32)s1` [Compound 49, (R)-(3-aminopiperidin-1-yl)(3-methyl-2-(1-((2-methylthiazol-5-yl)methyl)-1H-indol-2-yl)imidazo[1,2-a]pyridin-7-yl)methanone], the 50% inhibitory concentration (IC50) is under 100 nM.

As to `N[C@@H]1CCCN(C(=O)c2cc3c4c(c2)nc(-c2cc5ccccc5n2Cc2ccncc2F)n4CCO3)C1` [Compound 110, (R)-(3-aminopiperidin-1-yl)(2-(1-((3-fluoropyridin-4-yl)methyl)-1H-indol-2-yl)-3,4-dihydro-5-oxa-1,2a-diazaacenaphthylen-7-yl)methanone], the concentration for half-maximal inhibition (IC50) is under 100 nM. In the case of `Cc1c(-c2cc3ccccc3n2Cc2ncccc2F)nc2cc(C(=O)N3CCC[C@@H](N)C3)ccn12` [Compound 62, (R)-(3-aminopiperidin-1-yl)(2-(1-((3-fluoropyridin-2-yl)methyl)-1H-indol-2-yl)-3-methylimidazo[1,2-a]pyridin-7-yl)methanone], the IC50 was in the range of 100 to 1000 nM.
